Experimental findings from US12180226B2, “Spirotricycle RIPK1 inhibitors and methods of uses thereof” (Merck Sharp & Dohme LLC, priority 2021, dated 2024) are described below.

The target in the experiment is RIPK1 (recombinant GST-RIPK1 kinase domain, residues 1-327) (Homo sapiens (Human), UniProt Q13546). Nature of the experiment: RIPK1-ADP-Glo Enzymatic Assay. The experiment is classed as biochemical. The note with it: ADP-Glo; 25 nM GST-RIPK1, 300 μM ATP; assay lower limit ~25 nM; read-out: RIPK1 V0 Ec50. In outline:
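ADP-Glo luminescence read after 150 min kinase reaction (300 μM ATP, 3 μM dephosphorylated MBP) using 25 nM Sf21-made GST-kinase domain (1-327), preincubated 30 min with compound. HEPES pH 7.3, 1% DMSO; ten-point 1:3 series from 100000 nM, EC50 via four-parameter sigmoidal regression.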
For orientation: ADP-Glo turns the ADP formed in a reaction into a luminescent signal.

Chain of RIPK1 (recombinant GST-RIPK1 kinase domain, residues 1-327) (Q13546 1-327): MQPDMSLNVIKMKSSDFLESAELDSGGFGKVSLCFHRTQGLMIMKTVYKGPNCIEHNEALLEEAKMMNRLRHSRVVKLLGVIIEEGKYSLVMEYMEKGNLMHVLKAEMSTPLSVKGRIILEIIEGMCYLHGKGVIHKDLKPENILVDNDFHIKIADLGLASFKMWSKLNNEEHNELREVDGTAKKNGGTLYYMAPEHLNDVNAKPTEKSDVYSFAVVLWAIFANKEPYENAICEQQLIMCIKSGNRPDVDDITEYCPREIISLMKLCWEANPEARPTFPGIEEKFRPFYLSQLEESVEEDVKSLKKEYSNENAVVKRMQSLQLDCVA

As to `N#Cc1ccc(N2CCC3(CC2)S[C@@H]2CC[C@@H](c4ccccc4)N2C3=O)n2nccc12` [Example 4.145, 7-[(5′S,7a′R)-3′-oxo-5′-phenyltetrahydro-1H,3′H-spiro[piperidine-4,2′-pyrrolo[2,1-b] [1,3]thiazol]-1-yl]pyrazolo[1,5-a] pyridine-4-carbonitrile], the 50% effective concentration (EC50) was < 25 nM.
The same measure for `NC(=O)c1ccc(N2CCC3(CC2)O[C@@H]2CC[C@@H](c4ccccc4F)N2C3=O)n2ncnc12` [Example 4.151, 5-[(5′S,7a′R)-5′-(2-fluorophenyl)-3′-oxotetrahydro-1H,3′H-spiro[piperidine-4,2′-pyrrolo[2,1-b] [1,3]oxazol]-1-yl][1,2,4]triazolo[1,5-a] pyridine-8-carboxamide]: < 25 nM; for `N#Cc1ccc(C(=O)N2CCC3(CC2)O[C@@H]2CC[C@@H](c4cc(F)cc(F)c4)N2C3=O)c(F)c1` [Example 5.20, 4-((5′S,7a′R)-5′-(3,5-difluorophenyl)-3′-oxo-tetrahydro-3′H-spiro [piperidine-4,2′-pyrrolo-[2,1-b]oxazole]-1-carbon-yl)-3-fluorobenzonitrile]: 212 nM.
`O=C(c1ccc(F)cc1F)N1CCC2(CC1)O[C@@H]1CC[C@@H](c3ccccc3)N1C2=O` [Example 5.11, (5′S,7a′R)-1-(2,4-difluoro-benzene-1-carbonyl)-5′-phenyltetrahydro-3′H-spiro[piperidine-4,2′-pyrrolo[2,1-b][1,3]oxazol]-3′-one]: the EC50 was < 25 nM.
Under `O=C1N2[C@@H](CC[C@H]2c2ccccc2)OC12CCN(c1cc(F)ccn1)CC2` [Example 4.14, (5′S,7a′R)-1-(4-fluoropyridin-2-yl)-5′-phenyltetrahydro-3′H-spiro[piperidine-4,2′-pyrrolo[2,1-b] [1,3]oxazol]-3′-one] stands < 25 nM; under `O=C1N2[C@@H](CC[C@H]2c2ccccc2)OC12CCN(c1ccc(-c3ncco3)cn1)CC2` [Example 21.16, (5′S,7a′R)-1-[5-(1,3-oxazol-2-yl)pyridin-2-yl]-5′-phenyltetrahydro-3′H-spiro[piperidine-4,2′-pyrrolo[2,1-b][1,3]oxazol]-3′-one], < 25 nM; under `O=C1N2[C@@H](CC[C@H]2c2ccccc2F)OC12CCN(c1ncc(Br)c3ncnn13)CC2` [Example 4.240, (5′S,7a′R)-1-(8-bromo [1,2,4]triazolo[1,5-c]pyrimidin-5-yl)-5′-(2-fluorophenyl)tetrahydro-3′H-spiro[piperidine-4,2′-pyrrolo[2,1-b] [1,3]oxazol]-3′-one], < 25 nM.
Turning to `O=C(c1ccccc1)N1CCC2(CC1)O[C@@H]1CC[C@@H](c3ccccc3F)N1C2=O` [Example 1.13, (5′S,7a′R)-1-benzoyl-5′-(2-fluorophenyl)tetrahydro-3′H-spiro[piperidine-4,2′-pyrrolo[2,1-b]oxazol]-3′-one], the half-maximal effective concentration (EC50) was < 25 nM.
Under `O=C1N2[C@@H](CC[C@H]2c2cc(F)ccc2F)OC12CCN(c1ccnc3ccnn13)CC2` [Example 4.114, (5′S,7a′R)-5′-(2,5-difluorophenyl)-1-(pyrazolo[1,5-a]pyrimidin-7-yl)tetrahydro-3′H-spiro[piperidine-4,2′-pyrrolo[2,1-b] [1,3]oxazol]-3′-one] stands < 25 nM; under `O=C1N2[C@@H](CC[C@H]2c2cccc(F)c2)OC12CCN(c1ncnc3ccnn13)CC2` [Example 4.204, (5′S,7a′R)-5′-(3-fluorophenyl)-1-(pyrazolo[1,5-a] [1,3,5]triazin-4-yl)tetrahydro-3′H-spiro[piperidine-4,2′-pyrrolo[2,1-b] [1,3]oxazol]-3′-one], < 25 nM; under `O=C(c1cccc(Cl)c1F)N1CCC2(CC1)O[C@@H]1CC[C@@H](c3cc(F)cc(F)c3)N1C2=O` [Example 5.60, (5′S,7a′R)-1-(3-chloro-2-fluorobenzoyl)-5′-(3,5-difluorophenyl)tetrahydro-3′H-spiro[piperidine-4,2′-pyrrolo[2,1-b]oxazol]-3′-one], < 25 nM.

The EC50 is the concentration needed to bring the measured effect to its halfway point.
